Our source for the Activity values is ChEMBL document CHEMBL2074267, “Dexamethasone modulation of multidrug transporters in normal tissues” (FEBS Lett, 1999).

In data set [1] the target is T1, ATP-binding cassette sub-family C member 2 (Rattus norvegicus, UniProt Q63120). The data set can be described thus: (§1) TP_TRANSPORTER: Western in vivo, kidney of SD rat. Type of data set: functional, organism-based, Sprague-Dawley.
Data set [2] deals with T1, ATP-binding cassette sub-family C member 2. Briefly: TP_TRANSPORTER: Western in vivo, liver of SD rat. Type of data set: functional, organism-based, Sprague-Dawley.
The target in data set [3] is Multidrug resistance protein 1a (Rattus norvegicus) (UniProt Q6PSM0). The description is as §1. In kind it is functional, organism-based. To be noted: Sprague-Dawley.
Multidrug resistance protein 1a (Rattus norvegicus), sequence (Q6PSM0 as listed by the source): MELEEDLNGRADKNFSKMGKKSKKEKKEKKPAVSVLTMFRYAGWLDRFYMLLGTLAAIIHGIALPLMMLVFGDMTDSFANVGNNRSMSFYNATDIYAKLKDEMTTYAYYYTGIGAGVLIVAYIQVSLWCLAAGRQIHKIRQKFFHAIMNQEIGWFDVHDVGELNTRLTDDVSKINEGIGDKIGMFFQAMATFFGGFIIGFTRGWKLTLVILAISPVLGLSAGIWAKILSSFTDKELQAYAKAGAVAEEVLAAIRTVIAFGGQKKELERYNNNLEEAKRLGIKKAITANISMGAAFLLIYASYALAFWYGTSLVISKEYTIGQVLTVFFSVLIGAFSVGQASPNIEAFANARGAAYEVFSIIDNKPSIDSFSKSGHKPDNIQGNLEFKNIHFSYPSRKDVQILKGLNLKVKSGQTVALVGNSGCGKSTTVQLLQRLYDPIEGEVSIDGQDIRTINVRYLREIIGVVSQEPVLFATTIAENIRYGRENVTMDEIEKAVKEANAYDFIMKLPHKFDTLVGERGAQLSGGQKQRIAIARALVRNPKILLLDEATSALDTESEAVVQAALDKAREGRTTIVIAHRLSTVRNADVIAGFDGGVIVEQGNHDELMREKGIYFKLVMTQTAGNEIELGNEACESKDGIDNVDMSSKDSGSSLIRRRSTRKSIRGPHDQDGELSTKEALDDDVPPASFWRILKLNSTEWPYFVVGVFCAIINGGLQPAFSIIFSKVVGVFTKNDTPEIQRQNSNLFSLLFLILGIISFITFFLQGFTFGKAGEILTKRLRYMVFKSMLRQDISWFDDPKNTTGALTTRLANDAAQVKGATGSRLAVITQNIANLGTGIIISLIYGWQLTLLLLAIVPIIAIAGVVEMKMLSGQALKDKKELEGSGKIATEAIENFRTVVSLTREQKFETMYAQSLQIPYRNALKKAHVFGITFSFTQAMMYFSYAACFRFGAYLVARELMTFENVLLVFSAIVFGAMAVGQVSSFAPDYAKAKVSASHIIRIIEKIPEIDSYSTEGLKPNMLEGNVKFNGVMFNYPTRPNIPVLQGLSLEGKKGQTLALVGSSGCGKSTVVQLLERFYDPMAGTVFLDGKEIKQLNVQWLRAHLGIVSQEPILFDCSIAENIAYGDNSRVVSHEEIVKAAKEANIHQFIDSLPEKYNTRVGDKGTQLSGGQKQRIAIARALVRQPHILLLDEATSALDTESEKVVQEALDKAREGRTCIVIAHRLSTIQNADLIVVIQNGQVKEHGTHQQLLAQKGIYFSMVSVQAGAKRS

T1 sequence (Q63120 whole entry): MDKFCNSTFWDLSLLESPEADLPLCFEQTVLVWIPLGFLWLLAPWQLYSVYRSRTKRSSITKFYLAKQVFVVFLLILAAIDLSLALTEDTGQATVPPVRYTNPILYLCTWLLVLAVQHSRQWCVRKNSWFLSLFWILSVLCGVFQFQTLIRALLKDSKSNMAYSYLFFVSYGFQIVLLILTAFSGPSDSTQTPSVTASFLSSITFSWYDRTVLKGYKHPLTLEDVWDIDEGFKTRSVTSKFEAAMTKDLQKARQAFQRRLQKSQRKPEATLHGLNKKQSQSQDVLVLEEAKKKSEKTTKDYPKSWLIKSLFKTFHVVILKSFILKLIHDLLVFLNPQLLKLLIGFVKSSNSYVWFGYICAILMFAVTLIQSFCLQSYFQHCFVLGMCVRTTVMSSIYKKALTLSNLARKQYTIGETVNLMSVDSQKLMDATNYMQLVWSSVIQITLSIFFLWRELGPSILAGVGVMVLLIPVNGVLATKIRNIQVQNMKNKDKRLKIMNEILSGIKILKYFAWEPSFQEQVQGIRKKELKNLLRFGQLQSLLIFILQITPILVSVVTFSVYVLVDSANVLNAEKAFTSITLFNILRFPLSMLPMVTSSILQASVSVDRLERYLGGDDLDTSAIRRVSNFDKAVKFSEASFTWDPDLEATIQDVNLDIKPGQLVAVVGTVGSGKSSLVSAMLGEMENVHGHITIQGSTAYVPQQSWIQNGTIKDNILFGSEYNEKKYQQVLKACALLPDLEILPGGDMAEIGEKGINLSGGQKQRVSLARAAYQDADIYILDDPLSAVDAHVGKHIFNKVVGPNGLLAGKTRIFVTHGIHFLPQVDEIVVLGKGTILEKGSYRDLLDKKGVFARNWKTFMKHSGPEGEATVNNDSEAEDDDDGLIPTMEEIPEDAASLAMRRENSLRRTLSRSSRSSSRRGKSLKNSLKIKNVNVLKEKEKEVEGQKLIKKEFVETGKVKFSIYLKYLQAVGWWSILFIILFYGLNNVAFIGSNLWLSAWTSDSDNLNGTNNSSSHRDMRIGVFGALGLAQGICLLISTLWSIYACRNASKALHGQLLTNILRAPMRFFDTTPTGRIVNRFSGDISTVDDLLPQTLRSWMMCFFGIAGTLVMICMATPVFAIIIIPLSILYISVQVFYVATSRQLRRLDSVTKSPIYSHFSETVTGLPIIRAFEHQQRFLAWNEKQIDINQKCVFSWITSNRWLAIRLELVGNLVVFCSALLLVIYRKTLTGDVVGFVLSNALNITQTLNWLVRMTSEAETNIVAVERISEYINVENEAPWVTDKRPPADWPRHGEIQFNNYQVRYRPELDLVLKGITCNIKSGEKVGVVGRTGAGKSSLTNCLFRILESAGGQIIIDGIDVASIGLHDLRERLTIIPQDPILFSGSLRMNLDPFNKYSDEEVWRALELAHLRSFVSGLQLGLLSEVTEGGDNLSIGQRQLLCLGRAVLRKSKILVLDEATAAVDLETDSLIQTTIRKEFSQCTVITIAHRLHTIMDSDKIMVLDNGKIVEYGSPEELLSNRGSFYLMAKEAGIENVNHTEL

Take `C[C@@H]1C[C@H]2[C@@H]3CCC4=CC(=O)C=C[C@]4(C)[C@@]3(F)[C@@H](O)C[C@]2(C)[C@@]1(O)C(=O)CO` [DEXAMETHASONE]: the Activity entry was “inducer [+]” in data set [1], “inducer [+]” in data set [2] and “inducer [Decrease]” in data set [3].
